Test results: patent US20200360352A1, “USE OF RIFAMYCIN-NITROIMIDAZOLE COUPLING MOLECULE” (priority 2019, published 2020)
Like-named read-outs stand apart in the source and are kept apart here.

Experiments:
Assay type in all cases: cell-based
[1] = system: Mycobacterium kansasii; assay: MBC, plating of MIC wells and CFU count; conditions: read-out: Minimum Bactericidal Concentration (MBC)
[2] = system: Mycodacterium chelonei; assay: MIC, micro broth dilution with resazurin readout; conditions: MH Culture Medium; Chelonei (standard strain); read-out: Minimum Inhibitory Concentration (MIC)
[3] = system: Mycobacterium intracellulare; assay: MIC, micro broth dilution with resazurin readout; conditions: MH Culture Medium, read-out: Minimum Inhibitory Concentration (MIC)
[4] = system: Mycobacterium abscessus; assay: MBC, plating of MIC wells and CFU count; conditions: Mycobacteroides abscessus, read-out: Minimum Bactericidal Concentration (MBC)
[5] = system: Mycobacterium avium; assay: MBC, plating of MIC wells and CFU count; conditions: read-out: Minimum Bactericidal Concentration (MBC)
[6] = system: Mycobacterium massiliense; assay: MIC, micro broth dilution with resazurin readout; conditions: Mycobacteroides abscessus, MH Culture Medium, read-out: Minimum Inhibitory Concentration (MIC)
[7] = system: Mycobacterium abscessus; assay: MIC, micro broth dilution with resazurin readout; conditions: Mycobacteroides abscessus, read-out: Minimum Inhibitory Concentration (MIC)
[8] = system: Mycobacterium avium; assay: MIC, micro broth dilution with resazurin readout; conditions: read-out: Minimum Inhibitory Concentration (MIC)
[9] = system: Mycobacterium kansasii; assay: MIC, micro broth dilution with resazurin readout; conditions: read-out: Minimum Inhibitory Concentration (MIC)
[10] = system: Mycobacterium fortuitum; assay: MIC, micro broth dilution with resazurin readout; conditions: Mycolicibacterium fortuitum, MH Culture Medium, read-out: Minimum Inhibitory Concentration (MIC)
[11] = Intracellulare (standard strain)
[12] = clinically isolated strain Intracellulare (S90)
[13] = clinically isolated strain Intracellulare (S261)
[14] = clinically isolated strain Intracellulare (S269)
[15] = clinically isolated strain Intracellulare (S290)
[16] = clinically isolated strain Intracellulare (S291)
[17] = clinically isolated strain Intracellulare (S298)
[18] = clinically isolated strain Intracellulare (S442)
[19] = clinically isolated strain Intracellulare (S541)
[20] = clinically isolated strain Intracellulare (S623)
[21] = clinically isolated strain Intracellulare (ZPS)
[22] = 7H9 Broth, Mycobacterium avium Rough
[23] = 7H9 Broth, Mycobacterium avium Smooth
[24] = MH Broth, Mycobacterium avium Smooth
[25] = clinically isolated strain Massiliense (D10)
[26] = clinically isolated strain Massiliense (D14)
[27] = clinically isolated strain Massiliense (D18)
[28] = MH Culture Medium, Avium (standard strain)
[29] = MH Culture Medium, clinically isolated strain Avium (S31)
[30] = MH Culture Medium, clinically isolated strain Avium (S123)
[31] = MH Culture Medium, clinically isolated strain Avium (S559)
[32] = MH Culture Medium, clinically isolated strain Avium (S568)
[33] = MH Culture Medium, clinically isolated strain Avium (S577)
[34] = MH Culture Medium, clinically isolated strain Avium (S597)
[35] = MH Culture Medium, clinically isolated strain Avium (S602)
[36] = MH Culture Medium, Kansasii (standard strain)
[37] = MH Culture Medium, clinically isolated strain Kansasii (S9)
[38] = MH Culture Medium, clinically isolated strain Kansasii (S199)
[39] = MH Culture Medium, clinically isolated strain Kansasii (S520)
[40] = MH Culture Medium, clinically isolated strain Kansasii (S609)
[41] = clinically isolated strain Fortuitum (S103)
[42] = clinically isolated strain Fortuitum (S111)

CO[C@H]1/C=C/O[C@@]2(C)Oc3c(C)c(O)c4c(O)c(c(/C=N/N5CCN(C)CC5)c(O)c4c3C2=O)NC(=O)/C(C)=C\C=C\[C@H](C)[C@H](O)[C@@H](C)[C@@H](O)[C@@H](C)[C@H](OC(C)=O)[C@@H]1C [Rifampicin]
2 µg/mL: MIC [3, 18] | MIC [3, 21] | MIC [8, 35]
4 µg/mL: MBC ([1]; 7H9 Broth) | MBC ([1]; MH Broth) | MIC [3, 14] | MIC [3, 15] | MIC [3, 16] | MIC [3, 17] | MBC [5, 23] | MBC [5, 24] | MIC [8, 32]
1 µg/mL: MIC [8, 24]
> 64 µg/mL: MIC [2] | MBC ([4]; 7H9 Broth) | MBC ([4]; MH Broth) | MBC [5, 22] | MIC [6, 25] | MIC [6, 26] | MIC [6, 27] | MIC ([7]; 7H9 Broth) | MIC ([7]; MH Broth) | MIC ([10]; Fortuitum (standard strain)) | MIC [10, 41]
0.5 µg/mL: MIC [8, 23]
16 µg/mL: MIC [3, 13] | MIC [3, 19] | MIC ([9]; 7H9 Broth) | MIC ([9]; MH Broth)
8 µg/mL: MIC [3, 12] | MIC [3, 20] | MIC [8, 22] | MIC ([8]; MH Broth, Mycobacterium avium Rough) | MIC [8, 30] | MIC [8, 34]
0.125 µg/mL: MIC [8, 31] | MIC [8, 33] | MIC [9, 36] | MIC [9, 37]
64 µg/mL: MIC [10, 42]
0.0625 µg/mL: MIC [8, 29] | MIC [9, 38] | MIC [9, 39] | MIC [9, 40]
0.25 µg/mL: MIC [3, 11] | MIC [8, 28]

Cc1ncc([N+](=O)[O-])n1CCO [Metronidazole]
> 64 µg/mL: MBC ([1]; 7H9 Broth) | MBC ([1]; MH Broth) | MBC ([4]; 7H9 Broth) | MBC ([4]; MH Broth) | MBC [5, 23] | MBC [5, 24] | MIC ([7]; 7H9 Broth) | MIC ([7]; MH Broth) | MIC [8, 23] | MIC [8, 24] | MIC ([9]; 7H9 Broth) | MIC ([9]; MH Broth)
32 µg/mL: MIC [8, 35]
16 µg/mL: MIC [2] | MIC [3, 12] | MIC [3, 13] | MIC [3, 14] | MIC [3, 17] | MIC [3, 19] | MIC [6, 25] | MIC [6, 26] | MIC [8, 29] | MIC ([10]; Fortuitum (standard strain)) | MIC [10, 42]
8 µg/mL: MIC [3, 11] | MIC [3, 15] | MIC [3, 16] | MIC [3, 18] | MIC [3, 20] | MIC [3, 21] | MIC [6, 27] | MIC [8, 28] | MIC [8, 30] | MIC [8, 31] | MIC [8, 32] | MIC [8, 33] | MIC [8, 34] | MIC [9, 36] | MIC [9, 37] | MIC [9, 38] | MIC [9, 39] | MIC [9, 40] | MIC [10, 41]

COc1c(N2C[C@@H]3CCCN[C@@H]3C2)c(F)cc2c(=O)c(C(=O)O)cn(C3CC3)c12 [Moxifloxacin]
0.25 µg/mL: MIC [3, 11]
0.5 µg/mL: MIC [8, 30] | MIC [8, 32] | MIC [8, 33] | MIC [10, 42]
0.0625 µg/mL: MIC [9, 36] | MIC [9, 37] | MIC [9, 38] | MIC [9, 39] | MIC [9, 40]
1 µg/mL: MIC [3, 16] | MIC [3, 21] | MIC [8, 28] | MIC [8, 31] | MIC ([10]; Fortuitum (standard strain)) | MIC [10, 41]
8 µg/mL: MIC [6, 27] | MIC [8, 29]
2 µg/mL: MIC [3, 12] | MIC [3, 13] | MIC [3, 14] | MIC [3, 15] | MIC [3, 17] | MIC [3, 18] | MIC [3, 20] | MIC [8, 34]
64 µg/mL: MIC [3, 19]
4 µg/mL: MIC [2] | MIC [8, 35]
32 µg/mL: MIC [6, 25] | MIC [6, 26]
